“And” between values parts separate entries of the source, which are not always exact repeats. Identical values can stand only once. Peptide text beside a SMILES is read from it.
Tests used:
Type in all cases: cell-based
[1] = tested on: HIV-1 NL 4-3; assay: HIV-1 infection of C8166 cells (syncytia formation, p24 ELISA) with HIV-1 NL 4-3; design: key to syncitia formed, Day 4 / syncitia formed, Day 5 / syncitia formed, Day 6 / syncitia formed, Day 7: ++, +, (+), (+)− and − represent decreasing numbers of syncitia formed; ++, +, (+), (+)− and − represent decreasing numbers of syncitia formed; ++, +, (+), (+)− and − represent decreasing numbers of syncitia formed; ++, +, (+), (+)− and − represent decreasing numbers of syncitia formed; ++, +, (+), (+)− and − represent decreasing numbers of syncitia formed
Outline: (§1)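 Infection was read out as syncytia and as cell-free p24 in supernatants (ELISA) from C8166 cells that received HIV-1 (1000 TCID50/ml, 1 h, 37 °C) after a 1 h peptide pretreatment. Peptide stayed on before, during and after adsorption. Toxicity was checked by daily trypan-blue counts.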

[2] = tested on: HIV-1 NL 4-3; assay: as above; design: key: ++, +, (+), (+)− and − represent decreasing numbers of syncitia formed; ++, +, (+), (+)− and − represent decreasing numbers of syncitia formed; ++, +, (+), (+)− and − represent decreasing numbers of syncitia formed; ++, +, (+), (+)− and − represent decreasing numbers of syncitia formed; ++, +, (+), (+)− and − represent decreasing numbers of syncitia formed; settings: Table 6
Outline: as §1

[3] = tested on: HIV-1 NDK; assay: HIV-1 infection of C8166 cells (syncytia formation, p24 ELISA) with HIV-1 NDK; design: key to syncitia formed, Day 4 / syncitia formed, Day 5 / syncitia formed, Day 6 / syncitia formed, Day 7: ++, +, (+), (+)− and − represent decreasing numbers of syncitia formed; ++, +, (+), (+)− and − represent decreasing numbers of syncitia formed; ++, +, (+), (+)− and − represent decreasing numbers of syncitia formed; ++, +, (+), (+)− and − represent decreasing numbers of syncitia formed; ++, +, (+), (+)− and − represent decreasing numbers of syncitia formed; settings: for P 24: P 24 after Day 7
Outline: as §1

[4] = C8166 cells, HIV-1 subtype B NL 4-3, Table 9, two lines = tested twice, 8 days apart

N=C(N)NCCC[C@H](NC(=O)CNC(=O)[C@@H]1CCCN1C(=O)CN)C(=O)O [GPGR, reference compound] (H-GPGR-OH; N-terminus and C-terminus assumed)
Day 7 syncitia formed ([1]; 0.005 μM, Table 6): ++/T | syncitia formed, Day 4 ([1]; 0.01 μM, C8166 cells): (+) | syncitia formed, Day 5 ([1]; 0.01 μM, C8166 cells): + | syncitia formed, Day 6 ([1]; 0.01 μM, C8166 cells): ++ | syncitia formed, Day 7 ([1]; 0.01 μM, Day 7, C8166 cells): ++ | P 24 ([1]; 0.01 μM, P 24 after Day 7, C8166 cells): 23810 pg/mL | syncitia formed, Day 4 ([1]; 0.05 μM, C8166 cells): (+) | syncitia formed, Day 5 ([1]; 0.05 μM, C8166 cells): + | syncitia formed, Day 6 ([1]; 0.05 μM, C8166 cells): + | syncitia formed, Day 7 ([1]; 0.05 μM, Day 7, C8166 cells): ++ | P 24 ([1]; 0.05 μM, P 24 after Day 7, C8166 cells): 13810 pg/mL and 12980 pg/mL | syncitia formed, Day 4 ([1]; 0.1 μM, C8166 cells): − | syncitia formed, Day 5 ([1]; 0.1 μM, C8166 cells): (+) | syncitia formed, Day 6 ([1]; 0.1 μM, C8166 cells): + | syncitia formed, Day 7 ([1]; 0.1 μM, Day 7, C8166 cells): + | syncitia formed, Day 4 ([1]; 0.5 μM, C8166 cells): − | syncitia formed, Day 5 ([1]; 0.5 μM, C8166 cells): − | syncitia formed, Day 6 ([1]; 0.5 μM, C8166 cells): − | syncitia formed, Day 7 ([1]; 0.5 μM, Day 7, C8166 cells): + | P 24 ([1]; 0.5 μM, P 24 after Day 7, C8166 cells): 23000 pg/mL and 15810 pg/mL | syncitia formed, Day 4 ([1]; 1 μM, C8166 cells): − | syncitia formed, Day 5 ([1]; 1 μM, C8166 cells): − | syncitia formed, Day 6 ([1]; 1 μM, C8166 cells): − | syncitia formed, Day 7 ([1]; 1 μM, Day 7, C8166 cells): (+) | P 24 ([1]; 1 μM, P 24 after Day 7, C8166 cells): 316 pg/mL and 343 pg/mL | syncitia formed, Day 4 ([1]; 5 μM, C8166 cells): − | syncitia formed, Day 5 ([1]; 5 μM, C8166 cells): − | syncitia formed, Day 6 ([1]; 5 μM, C8166 cells): − | syncitia formed, Day 7 ([1]; 5 μM, Day 7, C8166 cells): (+) | P 24 ([1]; 5 μM, P 24 after Day 7, C8166 cells): 152 pg/mL | IC50 [1, 4]: 60 nM and 100 nM | IC100 [1, 4]: 5 µM and >5 µM | P 24 ([1]; Day 7, 0.005 μM, Table 6): 23810 pg/mL | P 24 ([1]; Day 7, 0.01 μM, Table 6): 23810 pg/mL | P 24 ([1]; Day 7, 0.1 μM, Table 6): 5810 pg/mL and 10110 pg/mL | P 24 ([1]; Day 7, 0.5 μM, Table 6): 2507 pg/mL and 2840 pg/mL | Day 4 syncitia formed ([2]; 0.005 μM): − | Day 5 syncitia formed ([2]; 0.005 μM): ++ | Day 6 syncitia formed ([2]; 0.005 μM): ++ | Day 4 syncitia formed ([2]; 0.01 μM): − | Day 5 syncitia formed ([2]; 0.01 μM): + | Day 6 syncitia formed ([2]; 0.01 μM): ++ | Day 7 syncitia formed ([2]; 0.01 μM): ++ | Day 4 syncitia formed ([2]; 0.05 μM): − | Day 5 syncitia formed ([2]; 0.05 μM): + | Day 6 syncitia formed ([2]; 0.05 μM): + | Day 7 syncitia formed ([2]; 0.05 μM): ++ | Day 4 syncitia formed ([2]; 0.1 μM): − | Day 5 syncitia formed ([2]; 0.1 μM): (+) | Day 6 syncitia formed ([2]; 0.1 μM): + | Day 7 syncitia formed ([2]; 0.1 μM): + | Day 4 syncitia formed ([2]; 0.5 μM): − | Day 5 syncitia formed ([2]; 0.5 μM): − | Day 6 syncitia formed ([2]; 0.5 μM): − | Day 7 syncitia formed ([2]; 0.5 μM): + | Day 4 syncitia formed ([2]; 1 μM): − | Day 5 syncitia formed ([2]; 1 μM): − | Day 6 syncitia formed ([2]; 1 μM): − | Day 7 syncitia formed ([2]; 1 μM): + | Day 4 syncitia formed ([2]; 5 μM): − | Day 5 syncitia formed ([2]; 5 μM): − | Day 6 syncitia formed ([2]; 5 μM): − | Day 7 syncitia formed ([2]; 5 μM): − | syncitia formed, Day 4 ([3]; 0.005 μM): − | syncitia formed, Day 5 ([3]; 0.005 μM): + | syncitia formed, Day 6 ([3]; 0.005 μM): ++ | syncitia formed, Day 7 ([3]; 0.005 μM): ++/T | P 24 ([3]; 0.005 μM): 23810 pg/mL | syncitia formed, Day 4 ([3]; 0.01 μM): − | syncitia formed, Day 5 ([3]; 0.01 μM): + | syncitia formed, Day 6 ([3]; 0.01 μM): ++ | syncitia formed, Day 7 ([3]; 0.01 μM): ++ | P 24 ([3]; 0.01 μM): 23810 pg/mL | syncitia formed, Day 4 ([3]; 0.05 μM): − | syncitia formed, Day 5 ([3]; 0.05 μM): + | syncitia formed, Day 6 ([3]; 0.05 μM): ++ | syncitia formed, Day 7 ([3]; 0.05 μM): ++ | P 24 ([3]; 0.05 μM): 23810 pg/mL | syncitia formed, Day 4 ([3]; 0.1 μM): − | syncitia formed, Day 5 ([3]; 0.1 μM): (+) | syncitia formed, Day 6 ([3]; 0.1 μM): ++ | syncitia formed, Day 7 ([3]; 0.1 μM): ++ | P 24 ([3]; 0.1 μM): 21810 pg/mL and 23870 pg/mL | syncitia formed, Day 4 ([3]; 0.5 μM): − | syncitia formed, Day 5 ([3]; 0.5 μM): (+) | syncitia formed, Day 6 ([3]; 0.5 μM): ++ | syncitia formed, Day 7 ([3]; 0.5 μM): ++ | P 24 ([3]; 0.5 μM): 9810 pg/mL and 15856 pg/mL | syncitia formed, Day 4 ([3]; 1 μM): − | syncitia formed, Day 5 ([3]; 1 μM): − | syncitia formed, Day 6 ([3]; 1 μM): + | syncitia formed, Day 7 ([3]; 1 μM): ++ | P 24 ([3]; 1 μM): 9870 pg/mL and 13890 pg/mL | syncitia formed, Day 4 ([3]; 5 μM): − | syncitia formed, Day 5 ([3]; 5 μM): − | syncitia formed, Day 6 ([3]; 5 μM): + | syncitia formed, Day 7 ([3]; 5 μM): ++ | IC50 ([3]; HIV 1 NDK, Table 10): 500 nM | IC100 ([3]; HIV 1 NDK, Table 10): >5 µM

Source: US20060229433A1, “Modified antiviral peptides with increased activity and cell membrane affinity” (priority 2003, published 2006)
